Legend:
[1] = biological target: T1, NS3-NS4 protease (Hepatitis C virus genotype 1a, UniProt P27958); assay: NS3-NS4 protease assay / NS3 inhibition assay, Section C; assay type: biochemical; details: read-out: NS3-NS4 IC50
T1 construct: Recombinant E. coli or Baculovirus full-length NS3 was diluted to 3.33 μM with assay buffer; made in house; host or cells: E. coli or baculovirus (BV) system
Outline: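 Full-length NS3 (E. coli, 2 nM, or Baculovirus, 3 nM, in assay) precomplexed with excess NS4A-2 peptide, pre-incubated with compound 10 minutes at room temperature, then RETS1 substrate added. Fluorescence (ex 335/em 495 nm) read kinetically over 30 minutes; IC50s from four-parameter fit converted to Ki via Ki=IC50/(1+[S]/Km).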

[2] = system: HCV sub-genomic replicon, GS4.3; assay: Quantitation by ELISA of NPTII in the HCV sub-genomic replicon, GS4.3, Section C; assay type: cell-based; details: Hepatitis C virus; GS4.3 cells, 72 h incubation; read-out: EC50
From the text: Quantitation by ELISA of the selectable marker protein, Neomycin phosphotransferase II (NPTII) in the HCV Sub-Genomic Replicon, GS4.3
The HCV sub-genomic replicon (1377/NS3-3′, accession No. AJ242652), stably maintained in HuH-7 hepatoma cells, was created by Lohmann et al. Science 285: 110-113 (1999). The replicon-containing cell culture, designated GS4.3, was obtained from Dr. Christoph Seeger of the Institute for Cancer Research, Fox Chase Cancer Center, Philadelphia, Pa.
GS4.3 cells were maintained at 37° C., 5% CO2, in DMEM (Gibco 11965-092) supplemented with L-glutamine 200 mM (100×) (Gibco25030-081), non-essential amino acids (NEAA)(Biowhittaker 13-114E), heat-inactivated (HI) Fetal Bovine Serum(FBS)(Hyclone SH3007.03) and 750 μg/ml geneticin (G418)(Gibco 10131-035). Cells were sub-divided 1:3 or 4 every 2-3 days.
24 h prior to the assay, GS4.3 cells were collected, counted, and plated in 96-well plates (Costar 3585) at 7500 cells/well in 100 μl standard maintenance medium (above) and incubated in the conditions above. To initiate the assay, culture medium was removed, cells were washed once with PBS (Gibco 10010-023) and 90 μl Assay Medium (DMEM, L-glutamine, NEAA, 10% HI FBS, no G418) was added. Inhibitors were made as a 10× stock in Assay Medium, (3-fold dilutions from 10 μM to […] final concentration, final DMSO concentration 1%), 10 μl were added to duplicate wells, plates were rocked to mix, and incubated as above for 72 h.
An NPTII Elisa kit was obtained from AGDIA, Inc. (Compound direct ELISA test system for Neomycin Phosphotransferase II, PSP 73000/4800). Manufacturer's instructions were followed, with some modifications. 10×PEB-1 lysis buffer was made up to include 500 μM PMSF (Sigma P7626, 50 mM stock in isopropanol). After 72 h incubation, cells were washed once with PBS and 150 μl PEB-1 with PMSF was added per well. Plates were agitated vigorously for 15 minutes, room temperature, then frozen at −70° C. Plates were thawed, lysates were mixed thoroughly, and 100 μl were applied to an NPTII Elisa plate. A standard curve was made. Lysate from DMSO-treated control cells was pooled, serially diluted with PEB-1 with PMSF, and applied to duplicate wells of the ELISA plate, in a range of initial lysate amount of 150u1-2.5 ul. In addition, 100 μl buffer alone was applied in duplicate as a blank. Plates were sealed and gently agitated at room temperature for 2 h. Following capture incubation, the plates were washed 5×300 μl with PBS-T (0.5% Tween-20, PBS-T was supplied in the ELISA kit). For detection, a 1× dilution of enzyme conjugate diluent MRS-2 (5×) was made in PBS-T, into which 1:100 dilutions of enzyme conjugates A and B were added, as per instructions. Plates were resealed, and incubated with agitation, covered, room temperature, for 2 h. The washing was then repeated and 100 μl of room temperature TMB substrate was added. After approximately 30 minutes incubation (room temperature, agitation, covered), the reaction was stopped with 50 μl 3M sulfuric acid. Plates were read at 450 nm on a Molecular Devices Versamax plate reader.
Inhibitor effect was expressed as a percentage of DMSO-treated control signal, and inhibition curves were calculated using a 4-parameter equation: y=A+((B−A)/(1+((C/x)^D))), where C is half-maximal activity or EC50.

T1 sequence (P27958 1027-1657): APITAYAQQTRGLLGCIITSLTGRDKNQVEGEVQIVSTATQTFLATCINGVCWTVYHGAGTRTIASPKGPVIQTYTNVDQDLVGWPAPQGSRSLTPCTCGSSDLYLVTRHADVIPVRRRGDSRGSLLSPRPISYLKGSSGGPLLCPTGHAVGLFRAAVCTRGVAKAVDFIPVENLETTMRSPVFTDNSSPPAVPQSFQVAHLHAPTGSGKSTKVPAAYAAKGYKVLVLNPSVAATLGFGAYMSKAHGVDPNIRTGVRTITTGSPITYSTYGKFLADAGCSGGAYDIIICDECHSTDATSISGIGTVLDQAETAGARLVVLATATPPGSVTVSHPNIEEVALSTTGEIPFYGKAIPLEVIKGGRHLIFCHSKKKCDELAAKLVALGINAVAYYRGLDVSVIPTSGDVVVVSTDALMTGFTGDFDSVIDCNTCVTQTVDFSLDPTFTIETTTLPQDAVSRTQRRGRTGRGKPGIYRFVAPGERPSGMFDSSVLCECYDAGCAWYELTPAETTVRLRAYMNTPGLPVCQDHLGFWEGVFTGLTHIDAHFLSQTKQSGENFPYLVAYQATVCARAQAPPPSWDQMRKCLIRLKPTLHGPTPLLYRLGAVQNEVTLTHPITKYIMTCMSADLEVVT

Row | SMILES | IC50 [1] | EC50 [2]
1 | CC(C)(C)OC(=O)N[C@H]1CCCCC/C=C\[C@@H]2C[C@@]2(C(=O)NS(N)(=O)=O)NC(=O)[C@@H]2C[C@@H](OC(=O)N3Cc4ccccc4C3)CN2C1=O [Compound 122, (1S,4R,6S,14S,18R)-1,3-Dihydro-isoindole-2-carboxylic acid 14-tert-butoxycarbonylamino-4-(aminosulfonyl-aminocarbonyl)-2,15-dioxo-3,16-diaza-tricyclo[14.3.0.0^4,6]nonadec-7-en-18-yl ester] | < 100 nM | < 100 nM
2 | CN1CCC(N(C2CC2)S(=O)(=O)NC(=O)[C@@]23C[C@H]2/C=C\CCCCC[C@H](NC(=O)OC(C)(C)C)C(=O)N2C[C@H](OC(=O)N4Cc5ccccc5C4)C[C@H]2C(=O)N3)CC1 [Compound 124, (1S,4R,6S,14S,18R)-1,3-Dihydro-isoindole-2-carboxylic acid 14-tert-butoxycarbonylamino-4-(cyclopropyl(1-methylpiperidin-4-yl)aminosulfonyl-aminocarbonyl)-2,15-dioxo-3,16-diaza-tricyclo[14.3.0.0^4,6]nonadec-7-en-18-yl ester] | < 1000 nM | < 100 nM
3 | CC(C)(C)OC(=O)N[C@H]1CCCCC/C=C\[C@@H]2C[C@@]2(C(=O)NS(=O)(=O)N(CCC#N)C2CC2)NC(=O)[C@@H]2C[C@@H](OC(=O)N3Cc4ccccc4C3)CN2C1=O [Compound 125, (1S,4R,6S,14S,18R)-1,3-Dihydro-isoindole-2-carboxylic acid 14-tert-butoxycarbonylamino-4-(2-cyanoethyl(cyclopropyl)aminosulfonyl-aminocarbonyl)-2,15-dioxo-3,16-diaza-tricyclo[14.3.0.0^4,6]nonadec-7-en-18-yl ester] | < 100 nM | < 100 nM
4 | CC(C)N(C(C)C)S(=O)(=O)NC(=O)[C@@]12C[C@H]1/C=C\CCCCC[C@H](NC(=O)OC(C)(C)C)C(=O)N1C[C@H](OC(=O)N3Cc4ccccc4C3)C[C@H]1C(=O)N2 [Compound 126, (1S,4R,6S,14S,18R)-1,3-Dihydro-isoindole-2-carboxylic acid 14-tert-butoxycarbonylamino-4-(N,N-diisopropylaminosulfonyl-aminocarbonyl)-2,15-dioxo-3,16-diaza-tricyclo[14.3.0.0^4,6]nonadec-7-en-18-yl ester] | < 100 nM | < 100 nM
5 | CC(C)(C)OC(=O)N[C@H]1CCCCC/C=C\[C@@H]2C[C@@]2(C(=O)NS(=O)(=O)Nc2ccccc2)NC(=O)[C@@H]2C[C@@H](OC(=O)N3Cc4ccccc4C3)CN2C1=O [Compound 127, (1S,4R,6S,14S,18R)-1,3-Dihydro-isoindole-2-carboxylic acid 14-tert-butoxycarbonylamino-4-(phenylaminosulfonyl-aminocarbonyl)-2,15-dioxo-3,16-diaza-tricyclo[14.3.0.0^4,6]nonadec-7-en-18-yl ester] | < 100 nM | < 100 nM
6 | CC(C)(C)OC(=O)N[C@H]1CCCCC/C=C\[C@@H]2C[C@@]2(C(=O)NS(=O)(=O)Nc2ccc(Cl)cc2)NC(=O)[C@@H]2C[C@@H](OC(=O)N3Cc4ccccc4C3)CN2C1=O [Compound 128, (1S,4R,6S,14S,18R)-1,3-Dihydro-isoindole-2-carboxylic acid 14-tert-butoxycarbonylamino-4-(4-chlorophenylaminosulfonyl-aminocarbonyl)-2,15-dioxo-3,16-diaza-tricyclo[14.3.0.0^4,6]nonadec-7-en-18-yl ester] | < 100 nM | < 100 nM
7 | COc1ccc(NS(=O)(=O)NC(=O)[C@@]23C[C@H]2/C=C\CCCCC[C@H](NC(=O)OC(C)(C)C)C(=O)N2C[C@H](OC(=O)N4Cc5ccccc5C4)C[C@H]2C(=O)N3)cc1 [Compound 129, (1S,4R,6S,14S,18R)-1,3-Dihydro-isoindole-2-carboxylic acid 14-tert-butoxycarbonylamino-4-(4-methoxyphenylaminosulfonyl-aminocarbonyl)-2,15-dioxo-3,16-diaza-tricyclo[14.3.0.0^4,6]nonadec-7-en-18-yl ester] | < 100 nM | < 100 nM
8 | Cc1ccc(NS(=O)(=O)NC(=O)[C@@]23C[C@H]2/C=C\CCCCC[C@H](NC(=O)OC(C)(C)C)C(=O)N2C[C@H](OC(=O)N4Cc5ccccc5C4)C[C@H]2C(=O)N3)cc1 [Compound 130, (1S,4R,6S,14S,18R)-1,3-Dihydro-isoindole-2-carboxylic acid 14-tert-butoxycarbonylamino-4-(4-methylphenylaminosulfonyl-aminocarbonyl)-2,15-dioxo-3,16-diaza-tricyclo[14.3.0.0^4,6]nonadec-7-en-18-yl ester] | < 100 nM | < 100 nM
9 | CC(C)(C)OC(=O)N[C@H]1CCCCC/C=C\[C@@H]2C[C@@]2(C(=O)NS(=O)(=O)Nc2ccc(C#N)cc2)NC(=O)[C@@H]2C[C@@H](OC(=O)N3Cc4ccccc4C3)CN2C1=O [Compound 131, (1S,4R,6S,14S,18R)-1,3-Dihydro-isoindole-2-carboxylic acid 14-tert-butoxycarbonylamino-4-(4-cyanophenylaminosulfonyl-aminocarbonyl)-2,15-dioxo-3,16-diaza-tricyclo[14.3.0.0^4,6]nonadec-7-en-18-yl ester] | < 100 nM | < 100 nM
10 | CC(C)(C)OC(=O)N[C@H]1CCCCC/C=C\[C@@H]2C[C@@]2(C(=O)NS(=O)(=O)Nc2ccc(C(F)(F)F)cc2)NC(=O)[C@@H]2C[C@@H](OC(=O)N3Cc4ccccc4C3)CN2C1=O [Compound 132, (1S,4R,6S,14S,18R)-1,3-Dihydro-isoindole-2-carboxylic acid 14-tert-butoxycarbonylamino-4-(4-trifluoromethylphenylaminosulfonyl-aminocarbonyl)-2,15-dioxo-3,16-diaza-tricyclo[14.3.0.0^4,6]nonadec-7-en-18-yl ester] | < 100 nM | < 100 nM
11 | CC(C)(C)OC(=O)N[C@H]1CCCCC/C=C\[C@@H]2C[C@@]2(C(=O)NS(=O)(=O)NC2CCC2)NC(=O)[C@@H]2C[C@@H](OC(=O)N3Cc4ccccc4C3)CN2C1=O [Compound 133, (1S,4R,6S,14S,18R)-1,3-Dihydro-isoindole-2-carboxylic acid 14-tert-butoxycarbonylamino-4-(cyclobutylaminosulfonyl-aminocarbonyl)-2,15-dioxo-3,16-diaza-tricyclo[14.3.0.0^4,6]nonadec-7-en-18-yl ester] | < 100 nM | < 100 nM
12 | CC(C)(C)OC(=O)N[C@H]1CCCCC/C=C\[C@@H]2C[C@@]2(C(=O)NS(=O)(=O)NC2CCCC2)NC(=O)[C@@H]2C[C@@H](OC(=O)N3Cc4ccccc4C3)CN2C1=O [Compound 134, (1S,4R,6S,14S,18R)-1,3-Dihydro-isoindole-2-carboxylic acid 14-tert-butoxycarbonylamino-4-(cyclopentylaminosulfonyl-aminocarbonyl)-2,15-dioxo-3,16-diaza-tricyclo[14.3.0.0^4,6]nonadec-7-en-18-yl ester] | < 100 nM | < 100 nM
13 | CC(C)(C)OC(=O)N[C@H]1CCCCC/C=C\[C@@H]2C[C@@]2(C(=O)NS(=O)(=O)NC2CCCCC2)NC(=O)[C@@H]2C[C@@H](OC(=O)N3Cc4ccccc4C3)CN2C1=O [Compound 135, (1S,4R,6S,14S,18R)-1,3-Dihydro-isoindole-2-carboxylic acid 14-tert-butoxycarbonylamino-4-(cyclohexylaminosulfonyl-aminocarbonyl)-2,15-dioxo-3,16-diaza-tricyclo[14.3.0.0^4,6]nonadec-7-en-18-yl ester] | < 100 nM | < 100 nM

— patent publication US7491794B2, “Macrocyclic compounds as inhibitors of viral replication” (Intermune, Inc., priority 2003, dated 2009)
